Reference: patent US12703836B2, “Mixture of compounds with high molecular weights, obtained from sugar cane wax (Saccharum officinarum L.)” (CENTRO NACIONAL DE INVESTIGACIONES CIENTÍFICAS, priority 2021, dated 2026)

Key:
Type in all cases: in vivo, New Zealand rabbits
[1] = test system: rabbits with spinal cord damage induced by Ischemia/Reperfusion (I/R); assay: Neurological deficit score in spinal cord ischemia/reperfusion (abdominal aorta occlusion); details: lower = better
Procedure: The neuroprotective effect of the HMWS mixture, object of the present invention, was also investigated using an experimental model of induction of ischemia in the spinal cord. […] Furthermore, the effect of HMWS was compared with that of pure extract of free fatty acids (AcGL) administered at equal doses.
The substances HMWS, AcGS, AlcG, AldG, AcGL and aspirin were prepared as suspensions in an acacia/water vehicle (1%). Once the quarantine was completed, the rabbits were distributed into 8 groups: a negative control that only received vehicle and was not induced ischemia and 7 groups with spinal cord ischemia: a positive control treated only with the vehicle, and 6 groups were treated with HMWS (200 mg/kg), AcGS (132 mg/kg), AlcG (40 mg/kg), AldG (28 mg/kg), AcGL (200 mg/kg), and aspirin (2 mg/kg) as reference substance. […]

[2] = test system: rabbits with spinal cord damage induced by Ischemia/Reperfusion (I/R); assay: Mortality in spinal cord ischemia/reperfusion; details: oral for 10 days: HMWS 200, AcGS 132, AlcG 40, AldG 28, AcGL 200, ASA 2 mg/kg, positive control 80
Procedure: The neuroprotective effect of the HMWS mixture, object of the present invention, was also investigated using an experimental model of induction of ischemia in the spinal cord. The composition obtained in example 2 was subjected to a preclinical test in which its pharmacological effect was compared with the effects of pure extracts of Fatty Acids in the form of Salts (AcGS), fatty alcohols (AlcG) and high molecular weight aldehydes (AldG), which were administered at doses equivalent to that of those respective substances in 200 mg/kg of the HMWS Active Ingredient. Furthermore, the effect of HMWS was compared with that of pure extract of free fatty acids (AcGL) administered at equal doses.
Male New Zealand rabbits (1.8-2.2 kg) were used, which were adapted for 15 days to laboratory conditions (temperature of 20 to 25° C., relative humidity of 60±5%, light/dark cycles of 12 hours), with free access to water and food.
The substances HMWS, AcGS, AlcG, AldG, AcGL and aspirin were prepared as suspensions in an acacia/water vehicle (1%). […]
For the induction of ischemia in the spinal cord, the rabbits were anesthetized with thiopental (20 mg/kg i.v.). […] At 4 and 24 hours of reperfusion, the neurological deficit of the animals was blindly evaluated by 2 independent observers (according to Zivin et al., 1982). […]

[3] = test system: spinal cord of rabbits with Ischemia/Reperfusion (I/R); assay: Histological score of the spinal cord after ischemia/reperfusion; details: oral for 10 days: HMWS 200, AcGS 132, AlcG 40, AldG 28, AcGL 200, ASA 60 (table) mg/kg
Procedure: The substances HMWS, AcGS, AlcG, AldG, AcGL and aspirin were prepared as suspensions in an acacia/water vehicle (1%). Once the quarantine was completed, the rabbits were distributed into 8 groups: a negative control that only received vehicle and was not induced ischemia and 7 groups with spinal cord ischemia: a positive control treated only with the vehicle, and 6 groups were treated with HMWS (200 mg/kg), AcGS (132 mg/kg), AlcG (40 mg/kg), AldG (28 mg/kg), AcGL (200 mg/kg), and aspirin (2 mg/kg) as reference substance. All treatments were administered orally via intragastric tubing (1 mL/2 kg body weight) for 10 days.
For the induction of ischemia in the spinal cord, the rabbits were anesthetized with thiopental (20 mg/kg i.v.). The abdomen was depilated, an antiseptic solution was applied, an incision was made in the ventral midline and the retroperitoneal space was penetrated. The aorta and left renal artery were dissected and exposed. The aorta was ligated by placing a clip immediately below the left renal artery for 20 minutes, after which it was removed and the reperfusion period began. […] At 4 and 24 hours of reperfusion, the neurological deficit of the animals was blindly evaluated by 2 independent observers (according to Zivin et al., 1982). […]

CC(=O)Oc1ccccc1C(=O)O [ASA, aspirin]
Score (neurological deficit) 4 h ([1]; 4 h of reperfusion, oral for 10 days: HMWS (example 2) 200, AcGS 132, AlcG 40, AldG 28, AcGL 200, ASA 2 mg/kg, positive control 0.30 ± 0.17, negative 2 ± 0): 0.90 ± 0.25
Score (neurological deficit) 24 h ([1]; 24 h of reperfusion, oral for 10 days: HMWS 200, AcGS 132, AlcG 40, AldG 28, AcGL 200, ASA 2 mg/kg, positive control 0.15 ± 0.1, negative 2 ± 0): 0.50 ± 0.24
Mortality 24 h (%) [2]: 40+ %
Histologic Score (spinal cord, 3 = no injuries, 0 = severe) ([3]; 24 hours after reperfusion, positive control 0.00 ± 0.05): 0.9 ± 0.15
Inhibition (%) of histological damage in the spinal cord ([3]; I/R): 30%
